Assay results: ChEMBL document CHEMBL1201862, “PubChem BioAssay data set” (2004)
One block for each compound: values may come before it. The source made the active and inactive calls. Rule as the data show it, for most assays here: actives have a measured IC50 and inactives only a lower limit.

How the values were obtained:
[1] = target: Sphingosine 1-phosphate receptor 1 (Homo sapiens, UniProt P21453); assay: Fluorescence-based counterscreen assay for S1P4 agonists: Cell-based dose response high throughput screening assay to identify agonists of the Sphingosine 1-Phosphate Receptor 1 (S1P1). [Related pubchem assays (depositor defined):AID1509, AID1523, AID1801, AID463107, AID463118, AID463119, AID463122, AID463123, AID463129, AID463225, AID504400, AID504460]; assay type: functional
[2] = target: T1, Sphingosine 1-phosphate receptor 4 (Homo sapiens, UniProt O95977); assay: Fluorescence dose response cell-based high throughput screening assay for agonists of the Sphingosine 1-Phosphate Receptor 4 (S1P4). [Related pubchem assays: 1509 (Primary screen.), 1523 (Confirmation screen in triplicates.)]; assay type: functional
T1 sequence (O95977 whole entry): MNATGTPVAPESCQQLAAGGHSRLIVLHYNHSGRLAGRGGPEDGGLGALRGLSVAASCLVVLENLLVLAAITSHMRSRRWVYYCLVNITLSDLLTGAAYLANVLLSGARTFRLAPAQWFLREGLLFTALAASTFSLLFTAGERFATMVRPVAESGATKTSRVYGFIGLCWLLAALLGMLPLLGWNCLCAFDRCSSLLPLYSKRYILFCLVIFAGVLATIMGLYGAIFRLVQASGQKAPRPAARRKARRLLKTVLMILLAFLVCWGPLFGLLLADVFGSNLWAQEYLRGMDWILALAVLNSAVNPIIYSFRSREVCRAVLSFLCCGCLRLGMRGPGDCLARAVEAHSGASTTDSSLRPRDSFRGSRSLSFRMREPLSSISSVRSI

[3] = target: Lysine-specific demethylase 4A (Homo sapiens, UniProt O75164); assay: inhibition of JMJD2A H3K9me3 demethylation – biochemical, DELFIA europium, cherry-picked samples, selectivity assay for GASC-1 inhibitor project, dose response (AID 488840)
[4] = target: Tyrosine-protein phosphatase non-receptor type 12 (Homo sapiens, UniProt Q05209); assay: SAR Selectivity Analysis of small molecule inhibitors of PEST using pCAP in a fluorescence assay. [Related pubchem assays (depositor defined):AID1779, AID1784, AID2135]; assay type: functional
[5] = target: T2, Tyrosine-protein phosphatase non-receptor type 22 (Homo sapiens, UniProt Q9Y2R2); assay: SAR LYP1 Fluorescent Assay using OMFP substrate for In Vitro dose response studies - Set 3. [Related pubchem assays (depositor defined):AID1779, AID1784, AID2140, AID2686]; assay type: functional
[6] = target: T3, Tyrosine-protein phosphatase non-receptor type 7 (Homo sapiens, UniProt P35236); assay: redox-active compounds inhibiting HePTP phosphatase – biochemical, fluorescence, mechanism study (AID 2068); assay type: functional
[7] = target: T3, Tyrosine-protein phosphatase non-receptor type 7; assay: inhibition of hematopoietic tyrosine phosphatase HePTP – biochemical, set 2, SAR follow-up (AID 449736); assay type: functional
[8] = target: T2, Tyrosine-protein phosphatase non-receptor type 22; assay: inhibition of lymphoid tyrosine phosphatase LYP – biochemical, pCAP fluorogenic substrate, fluorescence, set 3, SAR follow-up (AID 449727); assay type: functional
[9] = target: Dual specificity protein phosphatase 3 (Homo sapiens, UniProt P51452); assay: SAR VHR1 Fluorescent Assay for In Vitro dose response studies Set 2. [Related pubchem assays (depositor defined):AID1654, AID1661, AID1878]; assay type: functional
[10] = target: Dual specificity protein phosphatase 6 (Rattus norvegicus, UniProt Q64346); assay type: functional;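 also: confirmatory in vitro dose-response testing of MKP-3 inhibition; recombinant His-tagged MKP-3 made in E. coli BL21 with OMFP substrate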
Phospholipase D2 = Phospholipase D2 (Homo sapiens, UniProt O14939); assay: cellular phospholipase D2 inhibition IC50 – cell-based, dose response (AID 602147); assay type: functional;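 also: cellular assay in HEK293 cells overexpressing GFP-tagged PLD2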
Chain of Phospholipase D2 (O14939 whole entry): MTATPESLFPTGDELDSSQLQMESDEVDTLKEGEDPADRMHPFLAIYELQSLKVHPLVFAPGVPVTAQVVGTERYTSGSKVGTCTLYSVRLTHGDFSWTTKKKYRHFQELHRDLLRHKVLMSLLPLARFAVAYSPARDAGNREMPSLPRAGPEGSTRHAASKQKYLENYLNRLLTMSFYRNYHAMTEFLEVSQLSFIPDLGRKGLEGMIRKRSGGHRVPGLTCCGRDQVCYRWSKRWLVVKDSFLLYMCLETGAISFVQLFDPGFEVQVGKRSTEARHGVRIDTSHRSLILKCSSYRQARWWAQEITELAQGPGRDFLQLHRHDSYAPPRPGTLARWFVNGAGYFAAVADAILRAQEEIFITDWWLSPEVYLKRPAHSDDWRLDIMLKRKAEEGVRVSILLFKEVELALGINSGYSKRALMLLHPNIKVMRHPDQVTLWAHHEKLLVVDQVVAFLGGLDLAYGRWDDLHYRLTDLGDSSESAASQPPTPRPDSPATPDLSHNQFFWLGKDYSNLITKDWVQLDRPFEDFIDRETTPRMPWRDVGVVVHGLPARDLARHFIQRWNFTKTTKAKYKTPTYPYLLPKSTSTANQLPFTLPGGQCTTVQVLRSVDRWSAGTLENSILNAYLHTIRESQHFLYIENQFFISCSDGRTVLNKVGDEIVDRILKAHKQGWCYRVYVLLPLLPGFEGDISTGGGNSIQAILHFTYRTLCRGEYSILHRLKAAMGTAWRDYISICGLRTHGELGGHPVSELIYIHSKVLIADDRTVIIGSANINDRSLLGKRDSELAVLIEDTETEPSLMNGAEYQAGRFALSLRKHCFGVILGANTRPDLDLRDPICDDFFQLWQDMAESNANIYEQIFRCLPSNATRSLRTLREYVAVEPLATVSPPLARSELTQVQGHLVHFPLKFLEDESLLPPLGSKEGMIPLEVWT

T2 sequence (Q9Y2R2 whole entry): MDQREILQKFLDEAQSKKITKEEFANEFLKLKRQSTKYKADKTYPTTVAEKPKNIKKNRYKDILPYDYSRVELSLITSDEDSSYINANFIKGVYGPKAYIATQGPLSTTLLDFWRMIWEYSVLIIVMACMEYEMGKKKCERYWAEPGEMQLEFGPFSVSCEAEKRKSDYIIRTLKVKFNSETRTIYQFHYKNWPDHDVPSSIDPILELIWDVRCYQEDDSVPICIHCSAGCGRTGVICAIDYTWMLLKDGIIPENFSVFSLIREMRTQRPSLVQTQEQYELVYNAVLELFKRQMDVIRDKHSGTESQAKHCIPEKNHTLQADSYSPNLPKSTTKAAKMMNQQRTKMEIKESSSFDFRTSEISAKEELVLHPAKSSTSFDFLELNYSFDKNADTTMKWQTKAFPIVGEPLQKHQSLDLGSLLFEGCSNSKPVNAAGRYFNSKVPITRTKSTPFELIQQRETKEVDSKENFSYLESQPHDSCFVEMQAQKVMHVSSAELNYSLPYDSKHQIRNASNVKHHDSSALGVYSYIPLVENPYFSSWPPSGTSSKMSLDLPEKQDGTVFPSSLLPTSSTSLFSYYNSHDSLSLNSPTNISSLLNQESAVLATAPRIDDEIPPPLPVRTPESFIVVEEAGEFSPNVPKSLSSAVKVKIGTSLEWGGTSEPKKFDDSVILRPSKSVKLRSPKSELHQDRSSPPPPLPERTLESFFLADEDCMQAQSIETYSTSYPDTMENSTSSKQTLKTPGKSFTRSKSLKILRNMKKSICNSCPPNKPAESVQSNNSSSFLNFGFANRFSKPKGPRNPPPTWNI
T3 sequence (P35236 whole entry): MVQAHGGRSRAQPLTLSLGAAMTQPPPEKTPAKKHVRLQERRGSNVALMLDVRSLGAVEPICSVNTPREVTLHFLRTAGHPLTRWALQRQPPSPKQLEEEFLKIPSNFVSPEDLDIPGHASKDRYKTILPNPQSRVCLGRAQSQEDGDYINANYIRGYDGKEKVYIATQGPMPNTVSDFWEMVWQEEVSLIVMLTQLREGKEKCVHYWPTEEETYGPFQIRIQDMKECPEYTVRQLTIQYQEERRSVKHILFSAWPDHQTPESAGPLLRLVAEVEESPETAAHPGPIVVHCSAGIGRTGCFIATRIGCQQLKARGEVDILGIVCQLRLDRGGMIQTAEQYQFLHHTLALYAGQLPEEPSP
Chain of Dual specificity protein phosphatase 3 (P51452 whole entry): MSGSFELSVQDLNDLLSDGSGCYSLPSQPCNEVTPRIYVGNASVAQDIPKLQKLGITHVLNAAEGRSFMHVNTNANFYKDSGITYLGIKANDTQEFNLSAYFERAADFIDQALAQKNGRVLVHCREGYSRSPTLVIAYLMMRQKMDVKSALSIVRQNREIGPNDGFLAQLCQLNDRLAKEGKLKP
Chain of Lysine-specific demethylase 4A (O75164 whole entry): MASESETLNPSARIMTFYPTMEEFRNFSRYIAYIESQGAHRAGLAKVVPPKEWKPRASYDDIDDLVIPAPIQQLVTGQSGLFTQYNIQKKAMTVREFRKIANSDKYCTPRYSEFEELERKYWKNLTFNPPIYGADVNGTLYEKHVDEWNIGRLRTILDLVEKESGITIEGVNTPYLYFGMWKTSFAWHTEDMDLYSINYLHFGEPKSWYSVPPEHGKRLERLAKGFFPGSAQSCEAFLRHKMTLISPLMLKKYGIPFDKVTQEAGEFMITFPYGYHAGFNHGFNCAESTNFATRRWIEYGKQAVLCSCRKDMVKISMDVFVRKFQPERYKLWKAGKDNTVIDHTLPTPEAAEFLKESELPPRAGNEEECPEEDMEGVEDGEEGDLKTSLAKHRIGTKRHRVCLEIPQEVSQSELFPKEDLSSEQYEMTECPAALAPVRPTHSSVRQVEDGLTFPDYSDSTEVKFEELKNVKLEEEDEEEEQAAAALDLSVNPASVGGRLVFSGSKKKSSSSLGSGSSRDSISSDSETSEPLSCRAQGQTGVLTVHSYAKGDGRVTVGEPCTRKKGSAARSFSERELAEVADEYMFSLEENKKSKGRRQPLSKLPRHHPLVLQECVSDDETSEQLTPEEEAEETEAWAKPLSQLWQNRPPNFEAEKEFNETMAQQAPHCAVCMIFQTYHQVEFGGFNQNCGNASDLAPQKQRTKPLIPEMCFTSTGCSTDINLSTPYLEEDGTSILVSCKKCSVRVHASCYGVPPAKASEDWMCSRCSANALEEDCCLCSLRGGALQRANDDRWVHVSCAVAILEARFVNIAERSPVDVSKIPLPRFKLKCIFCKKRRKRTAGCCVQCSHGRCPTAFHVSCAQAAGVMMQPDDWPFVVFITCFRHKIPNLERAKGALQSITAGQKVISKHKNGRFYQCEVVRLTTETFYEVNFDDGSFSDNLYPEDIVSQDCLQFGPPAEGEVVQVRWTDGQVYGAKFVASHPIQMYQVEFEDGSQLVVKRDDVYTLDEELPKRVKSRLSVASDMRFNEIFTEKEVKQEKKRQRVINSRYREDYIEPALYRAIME
Chain of Tyrosine-protein phosphatase non-receptor type 12 (Q05209 whole entry): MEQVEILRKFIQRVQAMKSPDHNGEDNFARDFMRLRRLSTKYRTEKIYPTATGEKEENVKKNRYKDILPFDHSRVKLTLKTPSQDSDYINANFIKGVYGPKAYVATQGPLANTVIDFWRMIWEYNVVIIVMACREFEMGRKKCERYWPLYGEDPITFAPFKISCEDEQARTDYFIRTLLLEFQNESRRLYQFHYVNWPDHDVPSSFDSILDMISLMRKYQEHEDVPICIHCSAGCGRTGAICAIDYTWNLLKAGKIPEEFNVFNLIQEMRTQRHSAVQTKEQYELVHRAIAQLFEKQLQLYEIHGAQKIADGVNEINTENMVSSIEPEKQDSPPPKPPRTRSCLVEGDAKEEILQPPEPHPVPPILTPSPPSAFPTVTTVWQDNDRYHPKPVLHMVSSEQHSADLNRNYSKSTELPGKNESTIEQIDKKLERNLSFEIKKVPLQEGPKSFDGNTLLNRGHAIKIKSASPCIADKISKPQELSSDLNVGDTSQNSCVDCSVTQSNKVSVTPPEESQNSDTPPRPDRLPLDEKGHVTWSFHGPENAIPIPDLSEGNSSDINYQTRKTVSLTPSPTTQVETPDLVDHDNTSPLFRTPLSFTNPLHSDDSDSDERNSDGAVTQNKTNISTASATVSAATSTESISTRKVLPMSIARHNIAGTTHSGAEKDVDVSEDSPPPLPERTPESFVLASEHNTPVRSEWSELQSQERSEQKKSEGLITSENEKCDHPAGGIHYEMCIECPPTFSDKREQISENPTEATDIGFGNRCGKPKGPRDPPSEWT
Chain of Dual specificity protein phosphatase 6 (Q64346 whole entry): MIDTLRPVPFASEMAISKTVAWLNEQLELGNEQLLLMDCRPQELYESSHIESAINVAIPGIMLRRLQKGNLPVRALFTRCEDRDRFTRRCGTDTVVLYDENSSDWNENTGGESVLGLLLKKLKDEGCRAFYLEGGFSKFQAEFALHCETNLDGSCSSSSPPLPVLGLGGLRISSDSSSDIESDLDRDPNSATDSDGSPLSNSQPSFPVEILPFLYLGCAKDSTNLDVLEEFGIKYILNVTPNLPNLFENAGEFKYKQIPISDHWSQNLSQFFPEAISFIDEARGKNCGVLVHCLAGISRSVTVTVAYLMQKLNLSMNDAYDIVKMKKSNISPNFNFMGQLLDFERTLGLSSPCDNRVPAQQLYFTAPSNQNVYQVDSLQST
Chain of Sphingosine 1-phosphate receptor 1 (P21453 whole entry): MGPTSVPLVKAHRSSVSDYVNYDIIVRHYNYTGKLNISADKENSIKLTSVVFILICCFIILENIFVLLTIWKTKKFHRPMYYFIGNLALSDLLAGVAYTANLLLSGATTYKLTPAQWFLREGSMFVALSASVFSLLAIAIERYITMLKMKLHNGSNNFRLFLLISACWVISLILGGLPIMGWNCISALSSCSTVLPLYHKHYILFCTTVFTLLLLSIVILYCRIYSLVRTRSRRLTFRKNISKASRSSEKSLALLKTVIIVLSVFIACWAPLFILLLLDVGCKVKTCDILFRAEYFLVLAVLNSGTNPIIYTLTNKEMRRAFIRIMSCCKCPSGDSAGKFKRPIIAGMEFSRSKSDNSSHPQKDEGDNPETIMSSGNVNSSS

EC50 [1]: > 49.8 µM (inactive)
EC50 [2]: 9.34 µM (active)
Compound: CCN(c1ccccc1)S(=O)(=O)c1cc([N+](=O)[O-])ccc1N

AC50 [3]: > 60 µM (inactive)
Compound: CCOC(=O)CCCCCC(=O)Nc1ccc2c(c1)CC(=O)N([C@@H](C)CO)C[C@H](C)[C@@H](CN(C)C(=O)Nc1ccc3c(c1)OCO3)O2

Compound: CCOC(=O)COc1c(Cl)cc(/C=C2/S/C(=N/c3ccc(F)cc3)NC2=O)cc1OCC
IC50 [4]: 9.35 µM (active)
IC50 [5]: 74.8 µM (active)
IC50 [6]: 10.5 µM (active)
IC50 [7]: 1.4 µM (active)
IC50 [8]: 54.2 µM (active)
IC50 [9]: > 100 µM (inactive)
IC50 [10]: 66.4 µM (active)

Compound: Cc1cccc(C(=O)N[C@@H](C)CN2CCC3(CC2)C(=O)NCN3c2ccccc2)c1
IC50 (Phospholipase D2): 20 µM (active)
